Measured values published in PubChem BioAssay AID288 (DTP/NCI, 2004).
Records with an inconclusive call do not appear.

System: BDF1 mice, M5076 sarcoma s.c., survival/tumor T/C
Experiment: NCI In Vivo Anticancer Drug Screen. Data for tumor model Sarcoma M5076 (subcutaneous) in B6D2F1 (BDF1) mice
Experimental: The antitumor activity of compounds was measured in mice bearing transplantable tumors. Survival or tumor size were measured and the results are expressed as the measurement made in the treated group (T) divided by the measurement made in the vehicle treated control group (C). The tumor model used in this assay is Sarcoma M5076 (subcutaneous) in B6D2F1 (BDF1) mice

[1] = endpoint: median survival time, dose: 50.0 mg/kg/injection, schedule: Q01DX009 (ip), vehicle: saline with Tween-80, higher = longer survival
[2] = endpoint: median survival time, dose: 100.0 mg/kg/injection, schedule: Q01DX009 (ip), vehicle: saline with Tween-80, higher = longer survival
[3] = endpoint: median survival time, dose: 200.0 mg/kg/injection, schedule: Q01DX009 (ip), vehicle: saline with Tween-80, higher = longer survival
[4] = endpoint: median tumor weight (est.), dose: 50.0 mg/kg/injection, schedule: Q01DX009 (ip), vehicle: saline with Tween-80, higher = larger tumour
[5] = endpoint: median tumor weight (est.), dose: 100.0 mg/kg/injection, schedule: Q01DX009 (ip), vehicle: saline with Tween-80, higher = larger tumour
[6] = endpoint: median tumor weight (est.), dose: 200.0 mg/kg/injection, schedule: Q01DX009 (ip), vehicle: saline with Tween-80, higher = larger tumour

CC[C@](O)(C(=O)O)c1cc2n(c(=O)c1CO)Cc1cc3ccccc3nc1-2
T/C (endpoint: mean tumor weight, dose: 1.13 mg/kg/injection, schedule: Q02DX011 (ip), vehicle: saline, higher = larger tumour): 95 % of control
T/C (endpoint: mean tumor weight, dose: 2.25 mg/kg/injection, schedule: Q02DX011 (ip), vehicle: saline, higher = larger tumour): 61 % of control
T/C (endpoint: mean tumor weight, dose: 4.5 mg/kg/injection, schedule: Q02DX011 (ip), vehicle: saline, higher = larger tumour): 25 % of control
T/C (endpoint: median tumor weight (est.), dose: 1.13 mg/kg/injection, schedule: Q02DX011 (ip), vehicle: saline, higher = larger tumour): 97 % of control
T/C (endpoint: median tumor weight (est.), dose: 2.25 mg/kg/injection, schedule: Q02DX011 (ip), vehicle: saline, higher = larger tumour): 96 % of control
T/C (endpoint: median tumor weight (est.), dose: 4.5 mg/kg/injection, schedule: Q02DX011 (ip), vehicle: saline, higher = larger tumour): 44 % of control

S=c1nc[nH]c2nc[nH]c12
T/C (endpoint: median survival time, dose: 12.5 mg/kg/injection, schedule: Q04DX006 (ip), vehicle: saline with Tween-80, higher = longer survival): 99 % of control
T/C (endpoint: median survival time, dose: 25.0 mg/kg/injection, schedule: Q04DX006 (ip), vehicle: saline with Tween-80, higher = longer survival): 111 % of control
T/C (endpoint: median survival time, dose: 50.0 mg/kg/injection, schedule: Q02DX033 (ip), vehicle: saline with Tween-80, higher = longer survival): 107 % of control
T/C (endpoint: median survival time, dose: 50.0 mg/kg/injection, schedule: Q04DX006 (ip), vehicle: saline with Tween-80, higher = longer survival): 105 % of control
T/C (endpoint: median survival time, dose: 100.0 mg/kg/injection, schedule: Q04DX006 (ip), vehicle: saline with Tween-80, higher = longer survival): 111 % of control

CCCCCCCCCCCCCCCc1ccc(O)cc1O
T/C (endpoint: median survival time, dose: 25.0 mg/kg/injection, schedule: Q02DX030 (ip), vehicle: saline with Tween-80, higher = longer survival): 119 % of control
T/C (endpoint: median survival time, dose: 50.0 mg/kg/injection, schedule: Q02DX030 (ip), vehicle: saline with Tween-80, higher = longer survival): 111 % of control

COC1C(O)C(C)OC(OC2C(Oc3cccc4c(O)c5c(=O)oc6ccc(C)c7c(=O)oc(c34)c5c67)OC(C)C(O)C2O)C1O (stereo unspecified)
T/C (endpoint: mean tumor weight, dose: 25.0 mg/kg/injection, schedule: Q02DX011 (ip), vehicle: Klucel (hydroxypropylcellulose) (HPC), higher = larger tumour): 83 % of control
T/C (endpoint: mean tumor weight, dose: 50.0 mg/kg/injection, schedule: Q02DX011 (ip), vehicle: Klucel (hydroxypropylcellulose) (HPC), higher = larger tumour): 96 % of control
T/C (endpoint: mean tumor weight, dose: 100.0 mg/kg/injection, schedule: Q02DX011 (ip), vehicle: Klucel (hydroxypropylcellulose) (HPC), higher = larger tumour): 57 % of control
T/C (endpoint: median tumor weight (est.), dose: 50.0 mg/kg/injection, schedule: Q02DX011 (ip), vehicle: Klucel (hydroxypropylcellulose) (HPC), higher = larger tumour): 82 % of control
T/C (endpoint: median tumor weight (est.), dose: 100.0 mg/kg/injection, schedule: Q02DX011 (ip), vehicle: Klucel (hydroxypropylcellulose) (HPC), higher = larger tumour): 48 % of control

O=C(O)c1c(CS(F)(F)(F)(F)F)cc(=O)oc1CS(F)(F)(F)(F)F
T/C [1]: 98 % of control

O=C(O)CC(NC(=O)CP(=O)(O)O)C(=O)O (stereo unspecified)
T/C (endpoint: median survival time, dose: 38.9 mg/kg/injection, schedule: Q01DX004 (ip), vehicle: saline, higher = longer survival): 109 % of control
T/C (endpoint: median survival time, dose: 64.8 mg/kg/injection, schedule: Q01DX004 (ip), vehicle: saline, higher = longer survival): 114 % of control
T/C (endpoint: median survival time, dose: 75.0 mg/kg/injection, schedule: Q02DX010 (ip), vehicle: saline, higher = longer survival): 176 % of control
T/C (endpoint: median survival time, dose: 150.0 mg/kg/injection, schedule: Q02DX010 (ip), vehicle: saline, higher = longer survival): 169 % of control
T/C (endpoint: median survival time, dose: 180.0 mg/kg/injection, schedule: Q01DX004 (ip), vehicle: saline, higher = longer survival): 124 % of control
T/C (endpoint: median survival time, dose: 300.0 mg/kg/injection, schedule: Q02DX010 (ip), vehicle: saline, higher = longer survival): 181 % of control

Nc1nc(=S)c2[nH]cnc2[nH]1
T/C (endpoint: mean tumor weight, dose: 0.5 mg/kg/injection, schedule: Q02DX011 (ip), vehicle: Klucel (hydroxypropylcellulose) (HPC), higher = larger tumour): 58 % of control
T/C (endpoint: mean tumor weight, dose: 1.0 mg/kg/injection, schedule: Q02DX011 (ip), vehicle: Klucel (hydroxypropylcellulose) (HPC), higher = larger tumour): 16 % of control
T/C (endpoint: mean tumor weight, dose: 2.0 mg/kg/injection, schedule: Q02DX011 (ip), vehicle: Klucel (hydroxypropylcellulose) (HPC), higher = larger tumour): 3 % of control

c1cnc2c(OCCOCCOCCOCCOc3cccc4cccnc34)cccc2c1
T/C [1]: 98 % of control
T/C [2]: 122 % of control
T/C [3]: 121 % of control
T/C [4]: 73 % of control
T/C [5]: 58 % of control
T/C [6]: 49 % of control

COc1cccc2c1C(=O)c1c(O)c3c(c(O)c1C2=O)C[C@@](O)(C(=O)CO)C[C@@H]3OC1CC(N)C(O)C(C)O1 (stereo partly specified)
T/C (endpoint: mean tumor weight, dose: 1.0 mg/kg/injection, schedule: Q02DX011 (ip), vehicle: saline, higher = larger tumour): 81 % of control
T/C (endpoint: mean tumor weight, dose: 2.0 mg/kg/injection, schedule: Q02DX011 (ip), vehicle: saline, higher = larger tumour): 39 % of control
T/C (endpoint: median survival time, dose: 0.25 mg/kg/injection, schedule: Q02DX009 (iv), vehicle: saline, higher = longer survival): 97 % of control
T/C (endpoint: median survival time, dose: 0.5 mg/kg/injection, schedule: Q02DX009 (iv), vehicle: saline, higher = longer survival): 94 % of control
T/C (endpoint: median survival time, dose: 0.5 mg/kg/injection, schedule: Q04DX009 (ip), vehicle: saline, higher = longer survival): 114 % of control
T/C (endpoint: median survival time, dose: 1.0 mg/kg/injection, schedule: Q02DX009 (iv), vehicle: saline, higher = longer survival): 100 % of control
T/C (endpoint: median survival time, dose: 1.0 mg/kg/injection, schedule: Q02DX011 (ip), vehicle: water, higher = longer survival): 100 % of control
T/C (endpoint: median survival time, dose: 1.0 mg/kg/injection, schedule: Q04DX009 (ip), vehicle: saline, higher = longer survival): 111 % of control
T/C (endpoint: median survival time, dose: 1.3 mg/kg/injection, schedule: Q04DX004 (iv), vehicle: saline, higher = longer survival): 100 % of control
T/C (endpoint: median survival time, dose: 2.0 mg/kg/injection, schedule: Q02DX009 (iv), vehicle: saline, higher = longer survival): 97 % of control
T/C (endpoint: median survival time, dose: 2.0 mg/kg/injection, schedule: Q02DX011 (ip), vehicle: water, higher = longer survival): 94 % of control
T/C (endpoint: median survival time, dose: 2.0 mg/kg/injection, schedule: Q04DX009 (ip), vehicle: saline, higher = longer survival): 111 % of control
T/C (endpoint: median survival time, dose: 2.16 mg/kg/injection, schedule: Q04DX004 (ip), vehicle: saline, higher = longer survival): 90 % of control
T/C (endpoint: median survival time, dose: 2.16 mg/kg/injection, schedule: Q04DX004 (iv), vehicle: saline, higher = longer survival): 112 % of control
T/C (endpoint: median survival time, dose: 3.0 mg/kg/injection, schedule: Q02DX011 (ip), vehicle: water, higher = longer survival): 96 % of control
T/C (endpoint: median survival time, dose: 3.0 mg/kg/injection, schedule: Q04DX003 (iv), vehicle: saline, higher = longer survival): 108 % of control
T/C (endpoint: median survival time, dose: 3.6 mg/kg/injection, schedule: Q04DX004 (ip), vehicle: saline, higher = longer survival): 103 % of control
T/C (endpoint: median survival time, dose: 3.6 mg/kg/injection, schedule: Q04DX004 (iv), vehicle: saline, higher = longer survival): 93 % of control
T/C (endpoint: median survival time, dose: 4.0 mg/kg/injection, schedule: Q02DX011 (ip), vehicle: water, higher = longer survival): 38 % of control
T/C (endpoint: median survival time, dose: 4.0 mg/kg/injection, schedule: Q04DX009 (ip), vehicle: saline, higher = longer survival): 108 % of control
T/C (endpoint: median survival time, dose: 4.5 mg/kg/injection, schedule: Q04DX003 (iv), vehicle: saline, higher = longer survival): 124 % of control
T/C (endpoint: median tumor weight (est.), dose: 1.0 mg/kg/injection, schedule: Q02DX011 (ip), vehicle: saline, higher = larger tumour): 76 % of control
T/C (endpoint: median tumor weight (est.), dose: 2.0 mg/kg/injection, schedule: Q02DX011 (ip), vehicle: saline, higher = larger tumour): 26 % of control

Cc1ccc(C(=O)N=Nc2c(Cl)c(O)c3ccccc3c2O)cc1
T/C (endpoint: median survival time, dose: 12.5 mg/kg/injection, schedule: Q01DX009 (ip), vehicle: saline with Tween-80, higher = longer survival): 113 % of control
T/C (endpoint: median survival time, dose: 25.0 mg/kg/injection, schedule: Q01DX009 (ip), vehicle: saline with Tween-80, higher = longer survival): 110 % of control
T/C [1]: 89 % of control
T/C (endpoint: median tumor weight (est.), dose: 12.5 mg/kg/injection, schedule: Q01DX009 (ip), vehicle: saline with Tween-80, higher = larger tumour): 62 % of control
T/C (endpoint: median tumor weight (est.), dose: 25.0 mg/kg/injection, schedule: Q01DX009 (ip), vehicle: saline with Tween-80, higher = larger tumour): 120 % of control
T/C [4]: 80 % of control
T/C [5]: 88 % of control

O=C[C@@H](CO)O[C@H](C=O)n1cnc2c(=O)[nH]cnc21
T/C (endpoint: mean tumor weight, dose: 75.0 mg/kg/injection, schedule: Q02DX011 (ip), vehicle: saline, higher = larger tumour): 93 % of control
T/C (endpoint: mean tumor weight, dose: 150.0 mg/kg/injection, schedule: Q02DX011 (ip), vehicle: saline, higher = larger tumour): 105 % of control
T/C (endpoint: mean tumor weight, dose: 300.0 mg/kg/injection, schedule: Q02DX011 (ip), vehicle: saline, higher = larger tumour): 54 % of control
T/C (endpoint: median tumor weight (est.), dose: 75.0 mg/kg/injection, schedule: Q02DX011 (ip), vehicle: saline, higher = larger tumour): 376 % of control
T/C (endpoint: median tumor weight (est.), dose: 150.0 mg/kg/injection, schedule: Q02DX011 (ip), vehicle: saline, higher = larger tumour): 385 % of control
T/C (endpoint: median tumor weight (est.), dose: 300.0 mg/kg/injection, schedule: Q02DX011 (ip), vehicle: saline, higher = larger tumour): 266 % of control

CCC(NN)C(=O)OCc1ccccc1 (stereo unspecified)
T/C [1]: 107 % of control
T/C [2]: 104 % of control
T/C [3]: 104 % of control
T/C [4]: 75 % of control
T/C [5]: 103 % of control
T/C [6]: 109 % of control

CCN1Cc2c(/C=C/c3ccccc3)nc3ccc(OC)cc3c2N(c2cccc(Cl)c2)C1
T/C [1]: 99 % of control
T/C [2]: 99 % of control
T/C [3]: 105 % of control
T/C [4]: 60 % of control
T/C [5]: 105 % of control
T/C [6]: 73 % of control

Nc1ncn(C2OC(CO)C(O)C2O)c(=O)n1 (stereo unspecified)
T/C (endpoint: median survival time, dose: 0.6 mg/kg/injection, schedule: Q04DX009 (ip), vehicle: saline, higher = longer survival): 106 % of control
T/C (endpoint: median survival time, dose: 1.2 mg/kg/injection, schedule: Q04DX009 (ip), vehicle: saline, higher = longer survival): 112 % of control
T/C (endpoint: median survival time, dose: 2.4 mg/kg/injection, schedule: Q04DX009 (ip), vehicle: saline, higher = longer survival): 113 % of control
T/C (endpoint: median survival time, dose: 4.8 mg/kg/injection, schedule: Q04DX009 (ip), vehicle: saline, higher = longer survival): 111 % of control
